Test results reported in patent US20210154170A1, “METHODS OF TREATING NEUROPATHIC PAIN” (Biogen MA Inc., priority 2018, published 2021).
Like-named read-outs stand apart in the source and are kept apart here.

Legend:
[1] = Free fraction of Example 1 in plasma; format: in vitro ADME; conditions: human
[2] = system: rat model of inflammation (mechanical hypersensitivity); format: in vivo
Experimental: For all doses, the C Trough is higher than efficacious doses in animal model of inflammation. […] FCA1, an oral dose of 1 mg/kg was the minimal effective dose in this model. TGN (trigeminal neuralgia), PLSR (painful lumbosacral radiculopathy).
In this model, inflammation was induced by intraplantar injection of Freud Complete Adjuvant.
Mechanical hypersensitivity was then assessed using weight bearing.

healthy subjects = assay: Phase 1 valproic acid interaction study, safety and tolerability
Source text: • To evaluate the safety and tolerability of BIIB074 when administered alone and when coadministered with the UGT inhibitor valproic acid. • The endpoints that relate to this objective are the incidence of adverse events (AEs) and serious adverse events (SAEs), and changes in clinical laboratory parameters, vital signs, 12-lead electrocardiograms (ECGs), and Columbia Suicide Severity Rating Scale (C-SSRS) assessments. • To evaluate the effect of the UGT inhibitor valproic acid on the PK of the M13, M14, and M16 metabolites of BIIB074. • The endpoints that relate to this objective are: Cmax, AUCinf, AUClast, Tmax, Tlast, t1/2, and metabolite to parent ratio in AUC (MRAUC) of the M13, M14, and M16 metabolites of BIIB074
1. A single oral dose of BIIB074 administered in the morning on Days 1 and 16 following an 8-hour fast. The Day 16 dose was coadministered with the morning dose of valproic acid. 2. Valproic acid 500 mg TID was administered on Days 8 through 22. The morning dose on Day 16 was coadministered with BIIB074 following an 8-hour fast. 3. Blood samples for BIIB074 and metabolite PK collected predose and through 168 hours postdose on Days 1 through 8 and Days 16 through 23. 4. Single blood samples collected on Days 13 through 15 prior to the morning dose of valproic acid only, in order to determine valproic acid trough levels.

human hepatocytes = assay: Metabolism in human hepatocytes; format: in vitro ADME
rats = assay: Tyramine-induced hypertension; format: in vivo, rat; conditions: data not shown
Source text: The 36 day treatment duration in this study was rationally designed to determine whether tolerance developed for any potential effects of BIIB074 on SBP or DBP, since BP effects resolved by day 28 in the earlier phase 1 trial. The data from this study show a slight trend towards a decrease in the BP difference between BIIB074 and placebo between day 4 and day 35, although differences were minimal at all time points. […] Thus, the body of evidence, encompassing clinical and preclinical studies, supports safety and minimal effects of BIIB074 on BP/cardiovascular parameters.

[3] = system: patients with lumbosacral radiculopathy; conditions: PLSR, 350 mg bid, Phase 2, cited from earlier work
trigeminal neuralgia = conditions: TN, 150 mg tid; cited from earlier work
healthy participants = assay: Phase 1 cross-over study, ambulatory blood pressure monitoring (ABPM); format: in vivo, human; conditions: one-sided 95% CI excluding effect ≥5 mmHg

With `Cl.NC(=O)[C@@H]1CC[C@H](c2ccc(OCc3ccccc3F)cc2)N1` [Example 1, (5R)-5-(4-{[(2-Fluorophenyl)methyl]oxy}phenyl)-L-prolinamide hydrochloride] the fraction unbound ([1]; listed as 150 mg tid) was 0.032, the fraction unbound ([1]; listed as 200 mg bid) was 0.036 and the fraction unbound ([1]; listed as 250 mg tid) was 0.032. The fraction unbound ([1]; listed as 350 mg bid) was 0.032, the “Reversal of mechanical hypersensitivity” value ([2]; 5 mg/kg oral) was “fully reversed” and the “Human scaled equivalent total plasma exposure where robust efficacy was observed” value ([2]; rat, in vivo) was 786 ng/mL. For the same compound, the Abdominal pain (healthy subjects; human, in vivo) was 0 n (%), the Asthenia (healthy subjects; human, in vivo) was 0 n (%) and the Cardiac disorders (healthy subjects; human, in vivo) was 0 n (%). The Diarrhoea (healthy subjects; human, in vivo) was 0 n (%), the Dizziness (healthy subjects; human, in vivo) was 0 n (%) and the Dyspepsia (healthy subjects; human, in vivo) was 0 n (%). The “Events leading to drug withdrawal” value (healthy subjects; human, in vivo) was 0 n (%), the “Events leading to study withdrawal” value (healthy subjects; human, in vivo) was 0 n (%) and the Faeces soft (healthy subjects; human, in vivo) was 0 n (%). The Gastrointestinal disorders (healthy subjects; human, in vivo) was 1 (3.3) n (%), the “General disorders and administration site conditions” value (healthy subjects; human, in vivo) was 0 n (%) and the Glossodynia (healthy subjects; human, in vivo) was 1 (3.3) n (%). For the same compound, the Headache (healthy subjects; human, in vivo) was 1 (3.3) n (%), the Nausea (healthy subjects; human, in vivo) was 0 n (%) and the Nervous system disorders (healthy subjects; human, in vivo) was 1 (3.3) n (%). The Non-cardiac chest pain (healthy subjects; human, in vivo) was 0 n (%), the “Number of subjects with any event” value (healthy subjects; human, in vivo) was 2 (6.7) n (%) and the Pallor (healthy subjects; human, in vivo) was 0 n (%). For the same compound, the Palpitations (healthy subjects; human, in vivo) was 0 n (%), the Pruritus (healthy subjects; human, in vivo) was 0 n (%) and the Related event (healthy subjects; human, in vivo) was 0 n (%). For the same compound, the Related serious event (healthy subjects; human, in vivo) was 0 n (%), the Serious event (healthy subjects; human, in vivo) was 0 n (%) and the “Severity: Mild” value (healthy subjects; human, in vivo) was 2 (6.7) n (%). For the same compound, the “Severity: Moderate” value (healthy subjects; human, in vivo) was 0 n (%), the “Severity: Severe” value (healthy subjects; human, in vivo) was 0 n (%) and the “Skin and subcutaneous tissue disorders” value (healthy subjects; human, in vivo) was 0 n (%). For the same compound, the “TEAEs considered related to BIIB074” value (healthy subjects; human, in vivo) was “No TEAEs were considered related to BIIB074”, the Vascular disorders (healthy subjects; human, in vivo) was 0 n (%) and the Vomiting (healthy subjects; human, in vivo) was 0 n (%). For the same compound, the Safety conclusion (healthy subjects; in vivo) was “safe and well tolerated”, the Fatal event (healthy subjects; per treatment period) was 0 n (%) and the “Main route of metabolism” value (human hepatocytes) was “mainly metabolized by uridine diphosphate glucuronosyltransferases (UGTs)”. For the same compound, the “Effects on tyramine-induced hypertension” value (rats) was “no effects”, the Clinical efficacy ([3]; hydrochloride) was “EFFICACY OBSERVED in” and the Clinical efficacy ([3]; listed as CNV1014802, hydrochloride) was “demonstrated clinical benefit”. For the same compound, the Clinical efficacy (trigeminal neuralgia) was “EFFICACY OBSERVED in TN” and the “Non-inferiority to placebo, inpatient ABPM” value (healthy participants) was “non-inferiority of BIIB074 compared with placebo was demonstrated”.
